Measured values reported in PubChem BioAssay AID2060329 (Molecular Pharmacology Branch, DTP, NCI, 2025).
Where “and” joins values, the source holds several entries; their conditions need not be identical. Equal entries are not always repeated.

System: MCF7 multi-cell spheroids with HUVEC/MSC, viability
Assay: Anticancer human tumor MCF7 cell line growth inhibition [IpAb];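 note: spheroids exposed to agents for seven days before readout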
Details: for viability, T/C: stronger effect = lower value
Excerpt: Combinatorial screen of targeted agents with ipatasertib and abemaciclib in multi-cell type tumor spheroids
A high-throughput screen of multi-cell type tumor spheroids was designed to identify active combinations of targeted small molecules and ipatasertib or abemaciclib. Complex spheroids include a stromal component modeled by human endothelial cells (HUVEC) and fibroblasts modeled by human mesenchymal stem cells (MSCs). The concentration ranges selected for each drug and investigational agent were based upon clinically achievable concentrations if the clinical Cmax of the agent was known.
Compounds. The drugs and investigational agents: ipatasertib (NSC767898), abemaciclib(NSC768073), selumetinib (NSC741078), trametinib (758246), adavosertib (NSC754352), everolimus (NSC733504), sapanisertib (NSC764658), vemurafenib (NSC761431), venetoclax (NSC766270), copanlisib (NSC809693), apelisib (NSC765974), palbociblib (NSC758247), vemurafenib (NSC761431), dabrafenib (NSC764134), ravoxertinib (NSC781343), BMS-387032 (NSC767048), sotorasib (NSC818433), talazoparib (NSC767125) and afursertib (NSC778305), were obtained from the National Cancer Institute (NCI) Developmental Therapeutics Program Chemical Repository. The FDA-approved anticancer drug set is available from the NCI Developmental Therapeutics Program. […] The stock solutions were prepared in dimethyl sulfoxide (DMSO, Sigma-Aldrich, St. Louis, MO, cat. D2650) at 800-fold the tested concentration and stored at -70 degrees C prior to their use. All drugs and investigational agents were tested over a range starting from a high concentration at or near the clinical Cmax and decreasing in half-log increments. If the clinical Cmax for an agent had not been determined, the highest concentration tested was 10 microM.
NCI60 Cell Culture. NCI60 cell lines were obtained from the NCI Developmental Therapeutics Program Tumor Repository. For each lot of cells, the Repository performed Applied Biosystems AmpFLSTR Identifiler testing with PCR amplification to confirm consistency with the published Identifier STR profile for each cell line. Cells were kept in continuous culture for no more than 20 passages. The optimal seeding densities for each of the cell lines at each time point assessed were determined prior to performing the concentration response studies. Briefly, the NCI60 human tumor lines were grown as monolayers in RPMI 1640 medium supplemented with 10% FBS and 2 mmol/L L-glutamine.
An additional 9 lines were from the NCI60 cell line panel including MDA-MB-231 breast carcinoma, MDA-MB-468 breast carcinoma, MCF7 breast carcinoma, Hs578T breast carcinoma, MALME-3M melanoma, SK-MEL-2 melanoma, SK-OV-3 ovarian carcinoma, DU-145 prostate carcinoma, PC-3 prostate carcinoma, all cell lines along with major genetic alterations are listed on Table 2. Pooled donor human umbilical vein endothelial cells (HUVEC, Lonza, cat. CC-2519) and human mesenchymal stem cells (hMSC, Lonza, cat. PT-2501) were purchased from Lonza (Walkersville, MD).
PDMR cell lines were grown in complete medium (DC medium): Dulbecco's modified Eagle's medium (DMEM)/F12 supplemented with 5% fetal bovine serum (FBS), 2 mM L-glutamine, 100 U/mL penicillin and 100 µg/ml streptomycin, 0.4 µg/ml hydrocortisone, 10 ng/ml epidermal growth factor (EGF) recombinant human protein, 24 µg/mL adenine, and 0.1 mg/mL primocin. During culture from frozen stock vials, PDMR cells were cultured in the same medium containing 10 µM Y-27632 (see Table 3). The PDCs were cultured in complete DMEM/F12 media without 10 microM Y-27632 dihydrochloride for at least two passages prior to the screen. The pooled donor HUVEC and hMSC were cultured in endothelial cell growth medium 2 (PromoCell, Heidelberg, Germany, cat. C-22011) and mesenchymal stem cell growth medium 2 (PromoCell, cat. C-28009), respectively. For all experiments, HUVEC and hMSC were used at passages </=5.
[…]

Cc1nc(NC(=O)N2CCCC2C(N)=O)sc1-c1ccnc(C(C)(C)C(F)(F)F)c1 (stereo not given)
viability, T/C (compound 0.0316 µM): 74.8% and 93.7% | viability, T/C (compound 0.1 µM): 64.7% and 93.4% | viability, T/C (compound 0.316 µM): 65.9% and 78.8% | viability, T/C (compound 1 µM): 47.6% and 70.3% | viability, T/C (compound 3.16 µM): 48.1% and 63.4% | viability, T/C (compound 10 µM): 36.2% and 43% | IC50 (curve of compound): 1540 nM and 6660 nM

Cn1cnc2c(F)c(Nc3ccc(Br)cc3Cl)c(C(=O)NOCCO)cc21
viability, T/C (compound 0.00949 µM): 97.5% and 94.6% | viability, T/C (compound 0.03 µM): 102% and 98% | viability, T/C (compound 0.0949 µM): 105% and 97.7% | viability, T/C (compound 0.3 µM): 103% and 116% | viability, T/C (compound 0.949 µM): 107% and 102% | viability, T/C (compound 3 µM): 111% and 109% | IC50 (curve of compound): > 3000 nM

Cn1ncc(Cl)c1-c1cc(C(=O)NC(CN)Cc2cccc(F)c2)sc1Cl (stereo not given)
viability, T/C (compound 0.0316 µM): 89.2% and 85.5% | viability, T/C (compound 0.1 µM): 88.8% and 84.4% | viability, T/C (compound 0.316 µM): 79.7% and 72.8% | viability, T/C (compound 1 µM): 57.6% and 50.1% | viability, T/C (compound 3.16 µM): 8.42% and 19.3% | viability, T/C (compound 10 µM): 0.22% and 0.25% | IC50 (curve of compound): 1170 nM and 998 nM

Cn1nccc1Nc1nccc(-c2ccn(C(CO)c3ccc(Cl)c(F)c3)c(=O)c2)n1 (stereo not given)
viability, T/C (compound 0.0316 µM): 96.3% and 104% | viability, T/C (compound 0.1 µM): 96.2% and 111% | viability, T/C (compound 0.316 µM): 116% and 119% | viability, T/C (compound 1 µM): 129% and 118% | viability, T/C (compound 3.16 µM): 128% and 143% | viability, T/C (compound 10 µM): 88.5% and 102% | IC50 (curve of compound): > 10000 nM

Cn1ncnc1[C@H]1c2n[nH]c(=O)c3cc(F)cc(c23)N[C@@H]1c1ccc(F)cc1
viability, T/C (compound 0.000316 µM): 139% and 91.4% | viability, T/C (compound 0.001 µM): 97.3% and 97.9% | viability, T/C (compound 0.00316 µM): 92.7% and 90% | viability, T/C (compound 0.01 µM): 90.3% and 100% | viability, T/C (compound 0.0316 µM): 94% and 102% | viability, T/C (compound 0.1 µM): 85.9% and 102% | IC50 (curve of compound): > 100 nM

Cn1cnc2c(F)c(Nc3ccc(Br)cc3Cl)c(C(=O)NOCCO)cc21 + CC(C)NCC(C(=O)N1CCN(c2ncnc3c2C(C)CC3O)CC1)c1ccc(Cl)cc1
IC50 (curve of first compound, second compound 0.1 µM): > 3000 nM | IC50 (curve of first compound, second compound 0.316 µM): > 3000 nM | IC50 (curve of first compound, second compound 1 µM): 1410 nM | IC50 (curve of first compound, second compound 3.16 µM): < 9.49 nM | IC50 (curve of first compound, second compound 10 µM): < 9.49 nM | viability, T/C (second compound 0.1 µM, first compound 0.00949 µM): 87.8% | viability, T/C (second compound 0.1 µM, first compound 0.03 µM): 89.6% | viability, T/C (second compound 0.1 µM, first compound 0.0949 µM): 92.5% | viability, T/C (second compound 0.1 µM, first compound 0.3 µM): 86.2% | viability, T/C (second compound 0.1 µM, first compound 0.949 µM): 95% | viability, T/C (second compound 0.1 µM, first compound 3 µM): 82.5% | viability, T/C (second compound 0.316 µM, first compound 0.00949 µM): 80.8% | viability, T/C (second compound 0.316 µM, first compound 0.03 µM): 86.2% | viability, T/C (second compound 0.316 µM, first compound 0.0949 µM): 89.8% | viability, T/C (second compound 0.316 µM, first compound 0.3 µM): 77.9% | viability, T/C (second compound 0.316 µM, first compound 0.949 µM): 82.5% | viability, T/C (second compound 0.316 µM, first compound 3 µM): 67% | viability, T/C (second compound 1 µM, first compound 0.00949 µM): 58.7% | viability, T/C (second compound 1 µM, first compound 0.03 µM): 73.4% | viability, T/C (second compound 1 µM, first compound 0.0949 µM): 67.4% | viability, T/C (second compound 1 µM, first compound 0.3 µM): 50.9% | viability, T/C (second compound 1 µM, first compound 0.949 µM): 54.4% | viability, T/C (second compound 1 µM, first compound 3 µM): 44.7% | viability, T/C (second compound 3.16 µM, first compound 0.00949 µM): 43% | viability, T/C (second compound 3.16 µM, first compound 0.03 µM): 48.5% | viability, T/C (second compound 3.16 µM, first compound 0.0949 µM): 43.5% | viability, T/C (second compound 3.16 µM, first compound 0.3 µM): 38.4% | viability, T/C (second compound 3.16 µM, first compound 0.949 µM): 40.8% | viability, T/C (second compound 3.16 µM, first compound 3 µM): 31.3% | viability, T/C (second compound 10 µM, first compound 0.00949 µM): 30.7% | viability, T/C (second compound 10 µM, first compound 0.03 µM): 41.4% | viability, T/C (second compound 10 µM, first compound 0.0949 µM): 37.5% | viability, T/C (second compound 10 µM, first compound 0.3 µM): 34.8% | viability, T/C (second compound 10 µM, first compound 0.949 µM): 35.5% | viability, T/C (second compound 10 µM, first compound 3 µM): 27.5%
